Results on two compounds are retold here after US8652505B2, “Coating for medical implants” (Southwest Research Institute, priority 2010, dated 2014).

The experiment has as its system methicillin resistant Staphylococcus aureus (MRSA) bacteria (strain: ATCC#33591). The experiment in a line: Bacteria inhibition test on Mueller-Hinton agar (zone of inhibition / MIC). Format: cell-based. As for the experimental part: Bacteria inhibition tests were performed on Agar according to the standard method by using methicillin resistant Staphylococcus aureus (MRSA) bacteria (strain: ATCC#33591) in order to determine if the released vancomycin was active and unaffected by the coating and polymerization procedures described herein. The bacteria suspensions were cultured onto separate Mueller-Hinton agar plates at a concentration of 1−2×10^8 CFU/mL (CFU=colony forming unites) and incubated at 37° C. Released vancomycin, free vancomycin, and a standard vancomycin disk (loaded with 30 μg of vancomycin) were compared. After 24 hrs, the zone of inhibition was measured. To measure the sensitivity or the minimum inhibition concentration (MIC), different concentrations of vancomycin were loaded onto cellulose discs (40, 20, 10, 5, 2.5, and 1.25 μg per disc, N=3) and the zone of inhibition was measured.

Structures are written as SMILES.

With `CN[C@H](CC(C)C)C(=O)N[C@H]1C(=O)N[C@@H](CC(N)=O)C(=O)N[C@H]2C(=O)N[C@H]3C(=O)N[C@H](C(=O)N[C@H](C(=O)O)c4cc(O)cc(O)c4-c4cc3ccc4O)[C@H](O)c3ccc(c(Cl)c3)Oc3cc2cc(c3O[C@@H]2O[C@H](CO)[C@@H](O)[C@H](O)[C@H]2O[C@H]2C[C@](C)(N)[C@H](O)[C@H](C)O2)Oc2ccc(cc2Cl)[C@H]1O` [released drug, vancomycin], the “activity of released drug in bacteria inhibition test” value (zone of inhibition after 24 hrs, 37° C., compared with free vancomycin and standard 30 μg disk) is “same activity as the free drug and standard drug”.
In the case of `CN[C@H](CC(C)C)C(=O)N[C@H]1C(=O)N[C@@H](CC(N)=O)C(=O)N[C@H]2C(=O)N[C@H]3C(=O)N[C@H](C(=O)N[C@H](C(=O)O)c4cc(O)cc(O)c4-c4cc3ccc4O)[C@H](O)c3ccc(c(Cl)c3)Oc3cc2cc(c3O[C@@H]2O[C@H](CO)[C@@H](O)[C@H](O)[C@H]2O[C@H]2C[C@](C)(N)[C@H](O)[C@H](C)O2)Oc2ccc(cc2Cl)[C@H]1O` [vancomycin], the MIC (vancomycin loaded on cellulose discs, against S. Aureus, FIG. 10) was in the range of 0.5 to 1 µg.
